Source: PMC9604311 (International Journal of Molecular Sciences, 2022)
Entries after “also recorded” stand apart in the source; their conditions may differ. Positions of bridges follow the written chain, without caps; N, C: chain ends. Non-standard residues stand in square brackets, D forms with d. Residues, ends and D or L forms follow the SMILES beside them. No end group written: not given here.

B1: DOP (protein)
chain: MEPAPSAGAELQPPLFANASDAYPSACPSAGANASGPPGARSASSLALAIAITALYSAVCAVGLLGNVLVMFGIVRYTKMKTATNIYIFNLALADALATSTLPFQSAKYLMETWPFGELLCKAVLSIDYYNMFTSIFTLTMMSVDRYIAVCHPVKALDFRTPAKAKLINICIWVLASGVGVPIMVMAVTRPRDGAVVCMLQFPSPSWYWDTVTKICVFLFAFVVPILIITVCYGLMLLRLRSVRLLSGSKEKDRSLRRITRMVLVVVGAFVVCWAPIHIFVIVWTLVDIDRRDPLVVAALHLCIALGYANSSLNPVLYAFLDENFKRCFRQLCRKPCGRPDPSSFSRAREATARERVTACTPSDGPGGGAAA

Columns and labels:
human KOP = target: T1, human KOP (Homo sapiens, UniProt P41145); experiment: cell-based; conditions: for KOP pEC50 (CL95%): agonist potency, calcium mobilization; for KOP pEC50 (CL95%) / KOP α ± SEM: inactive = inactive up to 1 μM; for KOP α ± SEM: efficacy (intrinsic activity) relative to dynorphin A
T1 construct: expressed in transfected cells; host or cells: CHO cells
T1 sequence (P41145 whole entry): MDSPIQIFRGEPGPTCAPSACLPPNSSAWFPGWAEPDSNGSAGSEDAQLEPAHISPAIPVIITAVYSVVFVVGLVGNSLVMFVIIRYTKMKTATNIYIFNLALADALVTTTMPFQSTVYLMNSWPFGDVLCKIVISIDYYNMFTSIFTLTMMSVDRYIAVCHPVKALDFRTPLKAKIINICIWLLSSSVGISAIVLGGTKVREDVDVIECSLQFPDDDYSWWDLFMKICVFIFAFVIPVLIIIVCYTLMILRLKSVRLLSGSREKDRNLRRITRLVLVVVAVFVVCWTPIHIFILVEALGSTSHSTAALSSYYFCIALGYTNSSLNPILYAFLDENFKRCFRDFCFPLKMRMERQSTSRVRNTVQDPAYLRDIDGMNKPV

human MOP [1] = target: T2, human MOP (Homo sapiens, UniProt P35372); conditions: agonist potency, calcium mobilization; inactive = inactive up to 1 μM
T2 sequence (P35372 whole entry): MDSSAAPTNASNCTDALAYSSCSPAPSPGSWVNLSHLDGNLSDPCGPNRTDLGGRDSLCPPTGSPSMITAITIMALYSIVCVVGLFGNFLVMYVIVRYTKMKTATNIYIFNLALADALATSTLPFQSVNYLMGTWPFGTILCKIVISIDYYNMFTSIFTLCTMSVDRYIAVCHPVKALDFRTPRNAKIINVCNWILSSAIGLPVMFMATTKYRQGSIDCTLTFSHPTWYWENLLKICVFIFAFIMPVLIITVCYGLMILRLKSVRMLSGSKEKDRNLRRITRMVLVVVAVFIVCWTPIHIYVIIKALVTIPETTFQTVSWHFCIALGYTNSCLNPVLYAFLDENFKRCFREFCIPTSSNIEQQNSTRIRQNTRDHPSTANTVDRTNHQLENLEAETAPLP

human DOP [2] = target: T3, human DOP (Homo sapiens, UniProt P41143); type: cell-based; parameters: expressed in transfected cells; host or cells: CHO cells; conditions: inactive = inactive up to 1 μM; for DOP pEC50 (CL95%): agonist potency, calcium mobilization; for DOP α ± SEM: efficacy (intrinsic activity) relative to DPDPE
human NOP = human NOP (Homo sapiens, UniProt P41146); experiment: calcium mobilization assay, CHO cells co-expressing NOP and Gαqi5; conditions: for NOP pEC50 (CL95%): agonist potency, calcium mobilization, inactive = inactive up to 1 μM
Chain of human NOP (P41146 whole entry): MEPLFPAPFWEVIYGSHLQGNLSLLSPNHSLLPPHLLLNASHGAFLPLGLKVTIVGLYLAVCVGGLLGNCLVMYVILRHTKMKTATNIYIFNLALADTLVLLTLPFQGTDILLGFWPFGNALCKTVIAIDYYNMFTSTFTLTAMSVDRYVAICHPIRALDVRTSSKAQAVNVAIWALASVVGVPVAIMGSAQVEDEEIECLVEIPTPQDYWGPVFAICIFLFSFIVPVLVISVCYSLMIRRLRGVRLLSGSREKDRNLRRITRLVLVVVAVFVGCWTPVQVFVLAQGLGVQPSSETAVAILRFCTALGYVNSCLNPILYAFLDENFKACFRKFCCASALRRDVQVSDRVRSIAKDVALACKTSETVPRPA

mice [3] = experiment: rotarod test (motor coordination); type: in vivo; conditions: 6.2 nmol/animal, i.t.; compared to control group
Description: Rotarod apparatus (Ugo Basile, No. 8466, Italy) was used to estimate the probable influence of peptide on motor coordination of animals. In the training period, 3 trials were conducted for 3 consecutive days. Animals that were able to stay on the rotating (16 revolutions/min) bar more than 180 s were chosen for the tests. In the experimental session, each animal was tested on the rotarod, and duration to fall from the rotating bar was noted.

mice [4] = experiment: mouse hot-plate test (antinociception); conditions: i.t. administration, value with range in parentheses
human MOP [5] = target: T2, human MOP; experiment: [3H]DAMGO displacement binding assay; parameters: purchased PerkinElmer; host or cells: CHO cells
Description: (§1) Membranes were incubated in 0.5 mL of 50 mM Tris/HCl (pH = 7.4), 0.5% bovine serum albumin (BSA), with a number of peptidase inhibitors (bacitracin, bestatin, captopril) and various concentrations of radioligands for 2 h at 25 °C. Non-specific binding was assessed in the presence of […] naloxone. Assays were incubated at room temperature for […] and reactions were terminated via filtration through Whatman GF/B filters, soaked in 0.5% polyethyleneimine (PEI), using Millipore Sampling Manifold (Billerica, MA, USA). Radioactivity was determined after an 8 h extraction period.
(§2) The IC50 values were determined from the logarithmic concentration–displacement curves, and the values of the inhibitory constants (Ki) were calculated according to the equation of Cheng and Prusoff.

human MOP [6] = target: T2, human MOP; experiment: cell-based
[7] = target: T4, human nociceptin/orphanin FQ peptide receptor (NOP) (Homo sapiens, UniProt P41146); experiment: [leucyl-3H]nociceptin displacement binding assay
T4 construct: expressed in transfected cells; host or cells: CHO cells (CHOhNOP; gift from GSK), membrane homogenate
T4 sequence (P41146 whole entry): as above
Description: Radioactivity was determined after an 8 h extraction period.
as §2

human DOP [8] = target: T3, human DOP; experiment: [3H]deltorphin-2 displacement binding assay; parameters: purchased PerkinElmer; host or cells: CHO cells; conditions: for pKi DOP: displacement of [3H]deltorphin-2 from CHOhDOP cell homogenates, mean ± SEM, n = 5
Description: as §1, §2

KW-496 = target: T5, KW-496 (lactam 2-5); experiment: radioligand competition ([3H]deltorphin-2)
T5 chain: Y[dK]FFDGGGRYYRIK-NH2

KW-495 = target: T6, KW-495 (lactam 2-5); experiment: radioligand competition ([3H]deltorphin-2)
T6 chain: Y[dK]FFDRYYRIK-NH2

RP-170 = target: T7, RP-170 (lactam 2-5); experiment: radioligand competition ([3H]deltorphin-2)
T7 chain: Y[dK]FFD-NH2

| Molecule | KOP α ± SEM (human KOP) | DOP pEC50 (CL95%) (human DOP [2]) | DOP α ± SEM (human DOP [2]) | NOP pEC50 (CL95%) (human NOP) | Ki (human MOP [5]) [nM] | Ki (human DOP [8]) [nM] | also measured |
| --- | --- | --- | --- | --- | --- | --- | --- |
| CC[C@H](C)[C@H](NC(=O)[C@H](CCCNC(=N)N)NC(=O)[C@H](Cc1ccc(O)cc1)NC(=O)[C@H](Cc1ccc(O)cc1)NC(=O)[C@H](CCCNC(=N)N)NC(C)=O)C(=O)N[C@@H](CCCCN)C(N)=O [Ac-RYYRIK-NH2, Ac-Arg-Tyr-Tyr-Arg-Ile-Lys-NH2] | inactive | inactive | inactive | – | – | – | KOP pEC50 (CL95%) (human KOP): inactive; MOP pEC50 (CL95%) (human MOP [1]): inactive |
| CC1(C)SSC(C)(C)[C@@H](NC(=O)[C@@H](N)Cc2ccc(O)cc2)C(=O)NCC(=O)N[C@@H](Cc2ccccc2)C(=O)N[C@H]1C(=O)O [DPDPE] | inactive | – | – | inactive | – | – | KOP pEC50 (CL95%) (human KOP): inactive |
| CC[C@H](C)[C@H](NC(=O)[C@H](CCCNC(=N)N)NC(=O)[C@H](Cc1ccc(O)cc1)NC(=O)[C@H](Cc1ccc(O)cc1)NC(=O)[C@H](CCCNC(=N)N)NC(=O)[C@@H]1CC(=O)NCCCC[C@@H](NC(=O)[C@@H](N)Cc2ccc(O)cc2)C(=O)N[C@@H](Cc2ccccc2)C(=O)N[C@@H](Cc2ccccc2)C(=O)N1)C(=O)N[C@@H](CCCCN)C(N)=O [KW-495, Tyr-c[D-Lys-Phe-Phe-Asp]-Arg-Tyr-Tyr-Arg-Ile-Lys-NH2] (HELM PEPTIDE1{Y.[dK].F.F.D.R.Y.Y.R.I.K.[am]}$PEPTIDE1,PEPTIDE1,2:R3-5:R3$$$V2.0; N-terminus assumed) | – | inactive | inactive | – | 4.47 | > 1000 | effect on motor coordination (falling latency) (mice [3]): did not cause any significant effect; ED50 (jumping response) (mice [4]): 4.59 (1.17–18.09) nmol; EC50 (human MOP [6]): 8.71 nM; EC50 (human KOP): 2.82 nM; Ki [7]: 2.24 nM; pKi DOP (human DOP [8]): did not bind to DOP; EC50 (human NOP): 75.9 nM |
| CC[C@H](C)[C@H](NC(=O)[C@H](CCCNC(=N)N)NC(=O)[C@H](Cc1ccc(O)cc1)NC(=O)[C@H](Cc1ccc(O)cc1)NC(=O)[C@H](CCCNC(=N)N)NC(=O)CNC(=O)CNC(=O)CNC(=O)[C@@H]1CC(=O)NCCCC[C@@H](NC(=O)[C@@H](N)Cc2ccc(O)cc2)C(=O)N[C@@H](Cc2ccccc2)C(=O)N[C@@H](Cc2ccccc2)C(=O)N1)C(=O)N[C@@H](CCCCN)C(N)=O [KW-496] (HELM PEPTIDE1{Y.[dK].F.F.D.G.G.G.R.Y.Y.R.I.K.[am]}$PEPTIDE1,PEPTIDE1,2:R3-5:R3$$$V2.0) | 1.03 ± 0.02 | inactive | inactive | incomplete concentration–response curve; also recorded: Crc incomplete | 4.68 | > 1000 | EC50 (human MOP [6]): 4.9 nM; EC50 (human KOP): 1.15 nM; Ki [7]: 44.7 nM; pKi DOP (human DOP [8]): did not bind to DOP; NOP α at 1 μM (Crc incomplete) (human NOP; effect at 1 μM relative to N/OFQ, concentration-response curve incomplete): 0.33 ± 0.10 |
| CC(C)C[C@H](NC(=O)[C@H](CCCCN)NC(=O)[C@H](CCCNC(=N)N)NC(=O)[C@H](C)NC(=O)[C@H](CO)NC(=O)[C@H](CCCCN)NC(=O)[C@H](CCCNC(=N)N)NC(=O)[C@H](C)NC(=O)CNC(=O)[C@@H](NC(=O)[C@H](Cc1ccccc1)NC(=O)CNC(=O)CNC(=O)[C@@H](N)Cc1ccccc1)[C@@H](C)O)C(=O)N[C@@H](C)C(=O)N[C@@H](CC(N)=O)C(=O)N[C@@H](CCC(N)=O)C(=O)O [N/OFQ] | – | – | – | – | – | – | MOP pEC50 (CL95%) (human MOP [1]): inactive |
| NC(=O)[C@@H]1CC(=O)NCCCC[C@@H](NC(=O)[C@@H](N)Cc2ccc(O)cc2)C(=O)N[C@@H](Cc2ccccc2)C(=O)N[C@@H](Cc2ccccc2)C(=O)N1 [RP-170, Tyr-c[D-Lys-Phe-Phe-Asp]-NH2, reference compound] (HELM PEPTIDE1{Y.[dK].F.F.D.[am]}$PEPTIDE1,PEPTIDE1,2:R3-5:R3$$$V2.0; N-terminus assumed) | 1.00 ± 0.03 | inactive | inactive | completely inactive | 0.617 | 295 | – |
| CC[C@H](C)[C@H](NC(=O)[C@H](CCCNC(=N)N)NC(=O)[C@H](CCCNC(=N)N)NC(=O)[C@H](CC(C)C)NC(=O)[C@H](Cc1ccccc1)NC(=O)CNC(=O)CNC(=O)[C@@H](N)Cc1ccc(O)cc1)C(=O)N[C@@H](CCCNC(=N)N)C(=O)N1CCC[C@H]1C(=O)N[C@@H](CCCCN)C(=O)N[C@@H](CC(C)C)C(=O)N[C@@H](CCCCN)C(=O)N[C@@H](Cc1c[nH]c2ccccc12)C(=O)N[C@@H](CC(=O)O)C(=O)N[C@@H](CC(N)=O)C(=O)N[C@@H](CCC(N)=O)C(=O)O [dynorphin A, reference compound] | – | – | 1.00 | inactive | – | – | – |
| B1 | – | – | – | – | – | – | Ki (KW-496): > 1000 nM; Ki (KW-495): > 1000 nM; Ki (RP-170): 295 nM |
